Measured values taken from patent US11311522B1 (Cavion, Inc., priority 2018, dated 2022).

What was measured:
in vivo = details: male, Beagle, dog, plasma, po, 20 mg/kg/day
[1] = Exploratory embryofetal development study in rats
[2] = molecular target: cannabinoid 2 receptor (CB2) (Homo sapiens, UniProt P34972); assay: Cannabinoid 2 receptor binding
[3] = doses up to 20 μM
[4] = test system: patients with essential tremor; assay: T-CALM: adverse events, discontinuations, ECG; format: in vivo, human
Procedure: T-CALM employed the following dose titration scheme: Week 1 at 4 mg BID (8 mg/day), Week 2 at 8 mg BID (16 mg/day) and Weeks 3 & 4 at 10 mg BID (20 mg/day). […] Adverse Events were coded using MedDRA V20.0. Only treatment emergent adverse events with an onset date and time after the initiation of study drug until 30 days after discontinuation of drug were reported. For subjects who experience the same coded event more than once, a single event was presented. Adverse events were attributed to a study week based on the onset date, i.e. events that started on or after Visit 1 and prior to Visit 2 were classified as Study Week 1.
Electrocardiogram results were calculated as the average of the triplicate records at each time point. Baseline was defined as the mean of the triplicate values obtained pre-dose at Day 1. If this value was not available, the mean of the triplicate records obtained at screening were used.
Adverse events are characterized by maximum severity, drug-related adverse events, serious adverse events and adverse events leading to discontinuation of study.
Safety procedures involved collection of all TEAEs (treatment-emergent adverse events) coded into the Medical Dictionary for Regulatory Activities (MedDRA) version 20. Adverse events were classified by maximum severity, drug-related adverse events, serious adverse events, and adverse events leading to patient discontinuation.

[5] = test system: T1, major CYP isoforms (CYP1A2, CYP3A4, CYP2C8, CYP2C9, CYP2C19, CYP2D6, CYP2B6); assay: CYP inhibition in human liver microsomes; format: in vitro ADME; details: human liver microsomes; human microsomes
T1 construct: other: human liver microsomes; other: human microsomes

[6] = test system: T2, CYP3A4, CYP2C8, CYP2C9, CYP2D6, CYP1A2, CYP2C19, CYP2B6; assay: CYP inhibition in human liver microsomes; format: in vitro ADME; details: human, human liver microsomes
T2 construct: other: human liver microsomes; other: human microsomes

[7] = Sprague-Dawley rat, oral gavage GD 6 through GD 20

Chain of cannabinoid 2 receptor (CB2) (P34972 whole entry, species assumed): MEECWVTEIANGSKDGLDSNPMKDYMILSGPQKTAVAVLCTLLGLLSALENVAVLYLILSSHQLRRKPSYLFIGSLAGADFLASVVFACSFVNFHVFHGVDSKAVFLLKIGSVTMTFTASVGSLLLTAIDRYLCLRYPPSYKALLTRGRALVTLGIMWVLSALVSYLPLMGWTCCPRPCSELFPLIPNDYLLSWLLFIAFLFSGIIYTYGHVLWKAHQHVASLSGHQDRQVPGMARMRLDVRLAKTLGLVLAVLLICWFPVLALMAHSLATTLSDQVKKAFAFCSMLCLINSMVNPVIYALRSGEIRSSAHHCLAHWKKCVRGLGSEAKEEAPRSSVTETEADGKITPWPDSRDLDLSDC

With `CC(C)c1ccc(CC(=O)N[C@H](C)c2ccc(OCC(F)(F)F)cn2)cc1` [CX-8998] the AUC (in vivo) was 425 µM·h, the “dose at which developmental toxicity was observed” value [1, 7] was “observed at ≥100 mg/kg/day” and the “dose at which maternal toxicity was excessive” value [1, 7] was 1000 mg/kg/day. For the same compound, the “dose at which maternal toxicity was observed” value [1, 7] was at least 30 mg/kg/day, the “Doses with developmental toxicity (decreased live fetal body weight)” value ([1]; rat, in vivo) was at least 100 mg/kg/day and the “Doses with maternal toxicity” value ([1]; rat, in vivo) was at least 30 mg/kg/day. For the same compound, the inhibition at 10 µM ([2]; 10 μM) was 53%, the IC50 ([2]; calculated) was 5.34 µM and the “Alkaline elution assay result” value [3] was “negative”. The “Discontinuation due to Nervous System Disorders, subjects n (%)” value ([4]; N = 48) was 4 (8%), the “Discontinuation due to Psychiatric Disorders, subjects n (%)” value ([4]; N = 48) was 4 (8%) and the “Dosage reduced Due to adverse event, subjects n (%)” value ([4]; N = 48) was 3 (6%). The “Dosage reduced during study, subjects n (%)” value ([4]; N = 48) was 4 (8%), the “Subjects with at least 1 event leading to discontinuation, n (%)” value ([4]; N = 48) was 8 (17%) and the “Dosage reduced Due to other reasons, subjects n (%)” value ([4]; N = 48, subject had inadequate drug supply at Visit 4) was 1 (2%)^3. The “TEAE Abnormal dreams, subjects n (%)” value ([4]; Safety Analysis Set, n = 48) was 2 (4%), the “TEAE Disturbance in attention, subjects n (%)” value ([4]; Safety Analysis Set, n = 48) was 2 (4%) and the “TEAE Dizziness, subjects n (%)” value ([4]; Safety Analysis Set, n = 48) was 10 (21%). The “TEAE Dry mouth, subjects n (%)” value ([4]; Safety Analysis Set, n = 48) was 2 (4%), the “TEAE Dysgeusia, subjects n (%)” value ([4]; Safety Analysis Set, n = 48) was 2 (4%) and the “TEAE Ear and Labyrinth Disorders (system organ class), subjects n (%)” value ([4]; Safety Analysis Set, n = 48) was 2 (4%). The “TEAE Euphoric mood, subjects n (%)” value ([4]; Safety Analysis Set, n = 48) was 3 (6%), the “TEAE Gastrointestinal Disorders (system organ class), subjects n (%)” value ([4]; Safety Analysis Set, n = 48) was 9 (19%) and the “TEAE Hallucination, subjects n (%)” value ([4]; Safety Analysis Set, n = 48) was 2 (4%). The “TEAE Headache, subjects n (%)” value ([4]; Safety Analysis Set, n = 48) was 4 (8%), the “TEAE Hypesthesia, subjects n (%)” value ([4]; Safety Analysis Set, n = 48) was 0 and the “TEAE Infections and Infestations (system organ class), subjects n (%)” value ([4]; Safety Analysis Set, n = 48) was 4 (8%). The “TEAE Insomnia, subjects n (%)” value ([4]; Safety Analysis Set, n = 48) was 3 (6%), the “TEAE Nausea, subjects n (%)” value ([4]; Safety Analysis Set, n = 48) was 1 (2%) and the “TEAE Nervous System Disorders (system organ class), subjects n (%)” value ([4]; Safety Analysis Set, n = 48) was 20 (42%). For the same compound, the “TEAE Paraesthesia, subjects n (%)” value ([4]; Safety Analysis Set, n = 48) was 2 (4%), the “TEAE Somnolence, subjects n (%)” value ([4]; Safety Analysis Set, n = 48) was 1 (2%) and the “TEAE Tinnitus, subjects n (%)” value ([4]; Safety Analysis Set, n = 48) was 2 (4%). For the same compound, the “TEAE Urinary Tract Infection, subjects n (%)” value ([4]; Safety Analysis Set, n = 48) was 2 (4%), the “TEAE Vomiting, subjects n (%)” value ([4]; Safety Analysis Set, n = 48) was 0 and the “Subjects with at least 1 treatment-emergent adverse event, n (%)” value ([4]; Safety Analysis Set, n = 48, titrated up to 10 mg BID, 4 weeks) was 28 (58%). The “Adverse Event (MedDRA Preferred Term) leading to dosage reduction” value (from here on “Adverse Event … to dosage reduction”) ([4]; Subject 26-001, Study Day 25, from 10 mg BID to 8 mg BID, Completed study) was “Anxiety”, the “Adverse Event … to dosage reduction” value ([4]; Subject 31-023, Study Day 8, from 8 mg BID to 4 mg BID, Withdrawn (Day 8), term wraps over r24-r26: Electrocardiogram T-wave abnormal) was “Electrocardio-” and the “Adverse Event … to dosage reduction” value ([4]; Subject 33-004, Study Day 8, from 4 mg BID to 2 mg BID, Withdrawn (Day 45) Lost to follow-up) was “Headache”. The Abnormal dreams ([4]; TEAE, n = 48) was 2 (4%) n (%), the Disturbance in attention ([4]; TEAE, n = 48) was 2 (4%) n (%) and the Dizziness ([4]; TEAE, n = 48) was 10 (21%) n (%). The Dry mouth ([4]; TEAE, n = 48) was 2 (4%) n (%), the Dysgeusia ([4]; TEAE, n = 48) was 2 (4%) n (%) and the “Ear and Labyrinth Disorders” value ([4]; TEAE, n = 48) was 2 (4%) n (%). For the same compound, the Euphoric mood ([4]; TEAE, n = 48) was 3 (6%) n (%), the “Gastrointestinal Disorders” value ([4]; TEAE, n = 48) was 9 (19%) n (%) and the Hallucination ([4]; TEAE, n = 48) was 2 (4%) n (%). For the same compound, the Headache ([4]; TEAE, n = 48) was 4 (8%) n (%), the Hypesthesia ([4]; TEAE, n = 48) was 0 n (%) and the “Infections and Infestations” value ([4]; TEAE, n = 48) was 4 (8%) n (%). The Insomnia ([4]; TEAE, n = 48) was 3 (6%) n (%), the Nausea ([4]; TEAE, n = 48) was 1 (2%) n (%) and the “Nervous System Disorders” value ([4]; TEAE, n = 48) was 20 (42%) n (%). For the same compound, the Paraesthesia ([4]; TEAE, n = 48) was 2 (4%) n (%), the Somnolence ([4]; TEAE, n = 48) was 1 (2%) n (%) and the Tinnitus ([4]; TEAE, n = 48) was 2 (4%) n (%). The “Urinary Tract Infection” value ([4]; TEAE, n = 48) was 2 (4%) n (%), the Vomiting ([4]; TEAE, n = 48) was 0 n (%) and the “Discontinuation due to adverse events” value ([4]; in vivo) was 8 (17%) n (%). For the same compound, the “Dosage reduction due to TEAEs” value ([4]; in vivo) was 6%, the Electrocardiogram outlier analysis ([4]; in vivo) was “no CVS safety signals” and the IC50 [5] was over 25 µM. The IC50 [6] was 20 to 25 µM.
